The source of these data is patent US12233107B2, “GHRH or analogues thereof for use in treatment of hepatic disease” (The General Hospital Corporation, priority 2019, dated 2025).

The test system of data set [1] is patients with HIV-associated NAFLD. To be noted: Ajmera et al., Hepatology 2019; cited from earlier work.
The test system of data set [2] is patients with primary NAFLD. To be noted: cited from earlier work.
The subject of data set [3] is NASH in the general population. Particulars: cited from earlier work.
In data set [4] the test system is HIV-infected subjects with NAFL/NASH. Details: species or system human. Particulars: in vivo. On the procedure: Participants at MGH also underwent a euglycemic hyperinsulinemic clamp procedure to assess insulin sensitivity. After a 14-hour overnight fast, a low-dose (insulin 20 mU/m^2/min) clamp for 2 hours was followed by a high-dose (insulin 80 mU/m^2/min) clamp for 2 hours as previously described (Braun L R, et al. Effects of Pitavastatin on Insulin Sensitivity and Liver Fat: A Randomized Clinical Trial. J Clin Endocrinol Metab 2018; 103:4176-86). Insulin stimulated glucose disposal (M) were calculated during the last 20 minutes of low-dose and high-dose clamp using the DeFronzo method (DeFronzo R A, Tobin J D, Andres R. Am J Physiol 1979; 237:E214-23) as the primary indices of hepatic and whole-body insulin sensitivity, respectively.

For data set [5] the test system is unchanged. Further details: species or system human. To be noted: in vivo. On the procedure:
The study consisted of a 12-month, double-blind treatment phase during which participants were randomized in a 1:1 ratio receive to tesamorelin 2 mg daily or identical placebo, followed by a 6-month open label phase during which all participants receive tesamorelin. The pre-specified primary analysis, comparing changes over twelve months in tesamorelin vs. placebo treatment, is reported here. Randomization was stratified by site (NIH and MGH) and vitamin E use, defined as consistent use of ≥400 international units daily. The randomization list was prepared by the study statistician using a permuted block algorithm within each stratum with randomly varying block sizes. […] IGF-1 Z-scores were monitored throughout the study by an independent endocrinologist at MGH otherwise unaffiliated with the study. […]
Laboratory analyses were conducted using standard methodologies. Clinical labs were measured at the NIH Clinical Laboratory and, for MGH, at LabCorp and Quest. IGF-1 was measured centrally at Quest Laboratories. C-reactive protein was measured using electrochemiluminescense (Meso Scale Discovery, Rockville, MD), and adiponectin was measured using ELISA (R&D Systems, Minneapolis, MN).
Per the pre-specified analysis plan, change in HFF was assessed by random intercept mixed effects modeling using restricted maximum likelihood to assess the effect estimate for the time×randomization interaction. […]
This is another data set of the same source.

For data set [6] the test system is unchanged. To be noted: in vivo.

Take `CCCCCCCCCCCCCCCCCCCC(=O)N[C@H]1CC[C@@]2(C)[C@@H](C1)C[C@@H](O)[C@@H]1[C@@H]2C[C@H](O)[C@]2(C)[C@@H]([C@H](C)CCC(=O)O)CC[C@@H]12` [aramchol]: the “effect in patients with HIV-associated NAFLD” value in data set [1] is reported as “no significant effect”. Besides, in data set [2], the hepatic-fat content result is “reduce”.
Regarding Vitamin E, the “histological features of NASH” value in data set [3] is given as “improve”.
Regarding `CC/C=C/CC(=O)N[C@@H](Cc1ccc(O)cc1)C(=O)N[C@@H](C)C(=O)N[C@@H](CC(=O)O)C(=O)N[C@@H](C)C(=O)N[C@H](C(=O)N[C@@H](Cc1ccccc1)C(=O)N[C@H](C(=O)N[C@@H](CC(N)=O)C(=O)N[C@@H](CO)C(=O)N[C@@H](Cc1ccc(O)cc1)C(=O)N[C@@H](CCCNC(=N)N)C(=O)N[C@@H](CCCCN)C(=O)N[C@H](C(=O)N[C@@H](CC(C)C)C(=O)NCC(=O)N[C@@H](CCC(N)=O)C(=O)N[C@@H](CC(C)C)C(=O)N[C@@H](CO)C(=O)N[C@@H](C)C(=O)N[C@@H](CCCNC(=N)N)C(=O)N[C@@H](CCCCN)C(=O)N[C@@H](CC(C)C)C(=O)N[C@@H](CC(C)C)C(=O)N[C@@H](CCC(N)=O)C(=O)N[C@@H](CC(=O)O)C(=O)N[C@H](C(=O)N[C@@H](CCSC)C(=O)N[C@@H](CO)C(=O)N[C@@H](CCCNC(=N)N)C(=O)N[C@@H](CCC(N)=O)C(=O)N[C@@H](CCC(N)=O)C(=O)NCC(=O)N[C@@H](CCC(=O)O)C(=O)N[C@@H](CO)C(=O)N[C@@H](CC(N)=O)C(=O)N[C@@H](CCC(N)=O)C(=O)N[C@@H](CCC(=O)O)C(=O)N[C@@H](CCCNC(=N)N)C(=O)NCC(=O)N[C@@H](C)C(=O)N[C@@H](CCCNC(=N)N)C(=O)N[C@@H](C)C(=O)N[C@@H](CCCNC(=N)N)C(=O)N[C@@H](CC(C)C)C(N)=O)[C@@H](C)CC)C(C)C)[C@@H](C)O)[C@@H](C)CC` [Tesamorelin, trans-3-hexenoyl-GHRH(1-44)-NH2], in data set [4], the “treatment effect for high-dose M (insulin stimulated glucose uptake, high-dose clamp)” value is −0.9 and the “treatment effect for low-dose M (glucose infusion rate, low-dose clamp)” value came to 0.0 mg/kg/min. Besides, in data set [5], the fasting glucose entry was “did not significantly affect” and the “hemoglobin A1c” value is listed as “did not significantly affect”. In data set [6], this compound yielded an Any adverse event of 29, an Arthralgia of 3, a Hyperglycemia of 12 and an Injection site bruising of 11. Further, in data set [6], the Injection site erythema is on record as 3, the Injection site stinging was determined as 4, the Myalgia is on record as 2 and the Other adverse events was 25. Besides, in data set [6], the Other infection stood at 7, the “Other injection site complaints” value worked out at 10, the Paresthesia was determined as 2 and the URI came to 5. Besides, in data set [6], the discontinuations for hyperglycemia result is given as “two” and the “relation of serious adverse events to study drug” value is “None were judged as related to study drug”.
